From patent US7834048B2, “Azabicycloheptyl compounds suitable for treating disorders that respond to modulation of the dopamine D3 receptor” (Abbott GmbH & Co. KG, priority 2004, dated 2010)

How the values were obtained:
[1] = biological target: T1, human dopamine D3 receptors (Homo sapiens, UniProt P35462); assay: Dopamine D3 receptor binding, [125I]-iodosulpride displacement, HEK-293 membranes; details: for Ki(D2)*/Ki(D3)*: selectivity, ratio of receptor binding constants D2L vs D3; for Ki: receptor binding constant, membranes of HEK-293 cells, 0.1 nM [125I]-iodosulpride, 25° C., 60 minutes
T1 construct: expressed in transfected cells
T1 sequence (P35462 whole entry): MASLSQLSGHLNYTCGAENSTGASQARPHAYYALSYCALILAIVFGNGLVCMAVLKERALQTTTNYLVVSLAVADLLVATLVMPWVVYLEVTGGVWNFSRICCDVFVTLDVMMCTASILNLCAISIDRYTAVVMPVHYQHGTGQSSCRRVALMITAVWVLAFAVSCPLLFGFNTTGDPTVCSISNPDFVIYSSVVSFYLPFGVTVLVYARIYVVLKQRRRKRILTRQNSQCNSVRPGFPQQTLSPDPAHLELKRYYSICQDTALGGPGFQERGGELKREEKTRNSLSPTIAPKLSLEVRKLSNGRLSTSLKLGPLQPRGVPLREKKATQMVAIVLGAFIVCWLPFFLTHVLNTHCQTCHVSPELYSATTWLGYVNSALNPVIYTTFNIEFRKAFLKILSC
Protocol: (§1) The substance to be tested was either dissolved in methanol/Chremophor® (BASF-AG) or in dimethyl sulfoxide and then diluted with water to the desired concentration.
(§2) Each assay mixture was run in triplicate.
The incubation buffer contained 50 mM tris, 120 mM NaCl, 5 mM KCl, 2 mM CaCl2, 2 mM MgCl2 and 0.1% bovine serum albumin, 10 μM […] and 0.1% ascorbic acid (prepared fresh daily). The buffer was adjusted to pH 7.4 with HCl.
(§3) After having been incubated at 25° C. for 60 minutes, the assay mixtures were filtered through a Whatman GF/B glass fiber filter under vacuum using a cell collecting device. The filters were transferred to scintillation viols using a filter transfer system. After 4 ml of Ultima Gold® (Packard) have been added, the samples were shaken for one hour and the radioactivity was then counted in a Beta-Counter (Packard, Tricarb 2000 or 2200CA). The cpm values were converted into dpm using a standard quench series and the program belonging to the instrument.
(§4) The inhibition curves were analyzed by means of iterative nonlinear regression analysis using the Statistical Analysis System (SAS) which is similar to the “LIGAND” program described by Munson and Rodbard.
(§5) The results of the receptor binding studies are expressed as receptor binding constants Ki(D2) and Ki(D3), respectively, as herein before described, and given in table 1.

[2] = biological target: T2, human dopamine D2L receptors (long isoform) (Homo sapiens, UniProt P14416); assay: Dopamine D2L receptor binding, [125I]iodospiperone displacement, HEK-293 membranes; details: receptor binding constant; membranes of HEK-293 cells, 0.01 nM [125I]iodospiperone, 25° C., 60 minutes; read-out: Ki(D2)*
T2 construct: expressed in transfected cells
T2 sequence (P14416 whole entry, canonical isoform): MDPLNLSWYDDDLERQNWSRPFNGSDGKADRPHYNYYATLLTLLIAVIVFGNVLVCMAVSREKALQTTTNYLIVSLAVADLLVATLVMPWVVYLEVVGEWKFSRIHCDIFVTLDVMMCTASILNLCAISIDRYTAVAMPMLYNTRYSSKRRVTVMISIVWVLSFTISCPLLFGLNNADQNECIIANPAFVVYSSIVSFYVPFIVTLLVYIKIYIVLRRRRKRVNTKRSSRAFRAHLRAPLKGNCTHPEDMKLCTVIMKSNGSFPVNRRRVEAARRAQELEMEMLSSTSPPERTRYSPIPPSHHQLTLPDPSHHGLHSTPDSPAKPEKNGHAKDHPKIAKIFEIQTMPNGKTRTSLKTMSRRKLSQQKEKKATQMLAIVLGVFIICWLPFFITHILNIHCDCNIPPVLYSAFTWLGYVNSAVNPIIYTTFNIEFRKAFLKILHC
Protocol: as §1, §2
The incubation buffer contained 50 mM tris, 120 mM NaCl, 5 mM KCl, 2 mM CaCl2, 2 mM MgCl2 and 0.1% bovine serum albumin. The buffer was adjusted to pH 7.4 with HCl.
as §3, §4, §5

Row | Compound | Ki(D2)*/Ki(D3)* [1] | Ki [1] [nM] | Ki [2] [nM]
1 | CCCN1C[C@@H]2C[C@@H](c3ccc(NS(=O)(=O)c4ccc(OC(F)(F)F)cc4)cc3)[C@@H]2C1 [Example 4, N-[4-((1R,5S,6R)-3-Propyl-3-aza-bicyclo[3.2.0]hept-6-yl)-phenyl]-4-trifluoromethoxy-benzenesulfonamide] | 12 | 5.43 | 66.6
2 | CCCN1C[C@@H]2C[C@@H](c3ccc(NS(=O)(=O)c4ccc(C(F)(F)F)cc4)cc3)[C@@H]2C1 [Example 5, N-[4-((1R,5S,6R)-3-Propyl-3-aza-bicyclo[3.2.0]hept-6-yl)-phenyl]-4-trifluoromethyl-benzenesulfonamide] | 23 | 3.15 | 72.1
3 | C=CCN1C[C@@H]2C[C@@H](c3ccc(NS(=O)(=O)c4ccc(OC(F)(F)F)cc4)cc3)[C@@H]2C1 [Example 6, N-[4-((1R,5S,6R)-3-Allyl-3-aza-bicyclo[3.2.0]hept-6-yl)-phenyl]-4-trifluoromethoxy-benzenesulfonamide] | 11 | 4.13 | 47
4 | CCCN1C[C@@H]2C[C@@H](c3ccc(NS(=O)(=O)c4ccc(SC(F)(F)F)cc4)cc3)[C@@H]2C1 [Example 8, N-[4-((1R,5S,6R)-3-Propyl-3-aza-bicyclo[3.2.0]hept-6-yl)-phenyl]-4-trifluoromethylsulfanyl-benzenesulfonamide] | 17 | 1.81 | 30.2
5 | CCCN1C[C@@H]2C[C@@H](c3ccc(NS(=O)(=O)c4ccc(-c5ccco5)cc4)cc3)[C@@H]2C1 [Example 12, N-[4-((1R,5S,6R)-3-Propyl-3-aza-bicyclo[3.2.0]hept-6-yl)-phenyl]-4-furan-2-yl-benzenesulfonamide] | 8 | 4.46 | 37.6
6 | CCCN1C[C@@H]2C[C@@H](c3ccc(NS(=O)(=O)c4ccc(-c5cccs5)cc4)cc3)[C@@H]2C1 [Example 13, N-[4-((1R,5S,6R)-3-Propyl-3-aza-bicyclo[3.2.0]hept-6-yl)-phenyl]-4-thiophen-2-yl-benzenesulfonamide] | 10 | 1.32 | 13.1

Now from value to molecule:

Row | Ki(D2)*/Ki(D3)* [1] | Ki [1] [nM] | Ki [2] [nM] | Compound
7 | 45 |  |  | CCCN1C[C@H]2C[C@H](c3ccc(NS(=O)(=O)c4ccc(C(C)C)cc4)cc3)[C@H]2C1 (relative stereo) [Example 3, 4-Isopropyl-N-[4-(exo-3-propyl-3-aza-bicyclo[3.2.0]hept-6-yl)-phenyl]-benzenesulfonamide]
8 | 39 | 5.3 | 208 | CCCN1C[C@H]2C[C@@H](c3ccc(NS(=O)(=O)c4ccc(C(C)C)cc4)cc3)[C@H]2C1 (relative stereo) [Example 16, endo-4-Isopropyl-N-[4-(3-propyl-3-aza-bicyclo[3.2.0]hept-6-yl)-phenyl]-benzenesulfonamide]
9 | 28 | 0.47 | 12.9 | CCCN1C[C@@H]2C[C@@H](c3ccc(NS(=O)(=O)c4ccc(C(C)C)cc4)cc3)[C@@H]2C1 [Example 1, 4-Isopropyl-N-[4-((1R,5S,6R)-3-propyl-3-aza-bicyclo[3.2.0]hept-6-yl)-phenyl]-benzenesulfonamide]
10 | 24 | 1.31 | 31.7 | CCCN1C[C@@H]2C[C@@H](c3ccc(NS(=O)(=O)c4ccc(Br)cc4)cc3)[C@@H]2C1 [Example 7, 4-Bromo-N-[4-((1R,5S,6R)-3-propyl-3-aza-bicyclo[3.2.0]hept-6-yl)-phenyl]-benzenesulfonamide]
11 | 13 | 4.08 | 54.8 | CCCN1C[C@@H]2C[C@@H](c3ccc(NS(=O)(=O)c4ccc(N5CCC[C@@H]5COC)cc4)cc3)[C@@H]2C1 [Example 9, 4-((R)-2-Methoxymethyl-pyrrolidin-1-yl)-N-[4-((1R,5S,6R)-3-propyl-3-azabicyclo[3.2.0]hept-6-yl)-phenyl]-benzenesulfonamide]
12 | 16 | 1.98 | 32 | CCCN1C[C@@H]2C[C@@H](c3ccc(NS(=O)(=O)c4ccc(N5CCCC5)cc4)cc3)[C@@H]2C1 [Example 10, N-[4-((1R,5S,6R)-3-Propyl-3-aza-bicyclo[3.2.0]hept-6-yl)-phenyl]-4-pyrrolidin-1-yl-benzenesulfonamide]
13 | 26 | 2.19 | 56.7 | CCCN1C[C@@H]2C[C@@H](c3ccc(NS(=O)(=O)c4ccc(N5CCC5)cc4)cc3)[C@@H]2C1 [Example 11, 4-Azetidin-1-yl-N-[4-((1R,5S,6R)-3-propyl-3-aza-bicyclo[3.2.0]hept-6-yl)-phenyl]-benzenesulfonamide]
14 | 8 |  |  | CCCN1C[C@H]2C[C@H](c3ccc(NS(=O)(=O)c4ccc(C(C)C)cc4)cc3)[C@H]2C1 [Example 14, 4-Isopropyl-N-[4-((1S,5R,6S)-3-propyl-3-aza-bicyclo[3.2.0]hept-6-yl)-phenyl]-benzenesulfonamide]
